The target of assay [1] is T1, Polyadenylate-binding protein 1 (Homo sapiens, UniProt P11940). As to the kind of experiment: MLLE domain peptide-binding blockers, IC50 – biochemical, fluorescence polarization, FITC-PAM2 peptide, dose response (AID 602259). The format is functional. To be noted: read-out: IC50_Mean. (In fluorescence polarisation assays a small probe gives low polarisation when free and higher when bound to something large.)

Assay [2] addresses T1, Polyadenylate-binding protein 1. The assay is described as follows: MLLE binding blockers, Cy5 peptide tracer – biochemical, fluorescence polarization, Cy5-PAM2 peptide, secondary, miRNA deadenylation inhibitor project, dose response (AID 602260). The assay is classed as functional. To be noted: read-out: IC50_Mean.
The nature of assay [3]: microbe, parasite or virus in culture. Particulars: Mycobacterium tuberculosis. The assay is classed as functional.
Assay [4] is described as follows: A cytotoxicity screen of small molecule inhibitors of the PhoP region in Salmonella typhi identified in the primary screen. [Related pubchem assays: 1850, 1864, 1985 ]. The format is functional.
In assay [5] the target is T2, Protein skinhead-1 (Caenorhabditis elegans, UniProt P34707).
T2 sequence (P34707 whole entry): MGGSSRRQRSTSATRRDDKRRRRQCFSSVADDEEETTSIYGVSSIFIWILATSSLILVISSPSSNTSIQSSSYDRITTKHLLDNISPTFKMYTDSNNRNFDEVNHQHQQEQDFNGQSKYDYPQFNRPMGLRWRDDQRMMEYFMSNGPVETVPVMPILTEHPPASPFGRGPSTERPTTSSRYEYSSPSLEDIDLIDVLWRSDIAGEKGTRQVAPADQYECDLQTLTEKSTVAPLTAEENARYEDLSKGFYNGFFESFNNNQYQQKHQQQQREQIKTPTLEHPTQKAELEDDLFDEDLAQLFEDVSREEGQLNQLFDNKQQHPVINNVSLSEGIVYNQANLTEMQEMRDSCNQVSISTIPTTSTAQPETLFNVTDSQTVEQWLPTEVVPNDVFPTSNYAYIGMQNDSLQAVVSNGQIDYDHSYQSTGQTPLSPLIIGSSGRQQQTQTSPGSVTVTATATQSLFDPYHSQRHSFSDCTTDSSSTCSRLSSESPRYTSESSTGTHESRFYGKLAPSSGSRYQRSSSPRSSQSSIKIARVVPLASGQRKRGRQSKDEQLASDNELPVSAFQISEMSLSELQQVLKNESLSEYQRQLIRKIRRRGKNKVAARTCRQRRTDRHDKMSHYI
The assay is classed as functional.

The subject of assay [6] is Streptococcus sp. 'group A'. The assay is described as follows: Streptococcus pyogenes SK(-)GAS viability under kanamycin – luminescence, BacTiterGlo, confirmation, counter-screen for streptokinase expression inhibitor project, dose response (AID 1900). The format is functional, organism-based. Background: Counterscreens check selectivity or assay interference.
For assay [7], the system named is Streptococcus. The assay is described as follows: GAS UMAA2166 growth inhibition – luminescence, BacTiterGlo, counter-screen for streptokinase expression inhibitor project, dose response (AID 1915).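 Also: potency for reduction of bacterial viability or growth.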 The assay is classed as functional, organism-based.
Assay [8] addresses T3, Streptokinase A (Streptococcus pyogenes serotype M1, UniProt P10520).
T3 sequence (P10520 whole entry): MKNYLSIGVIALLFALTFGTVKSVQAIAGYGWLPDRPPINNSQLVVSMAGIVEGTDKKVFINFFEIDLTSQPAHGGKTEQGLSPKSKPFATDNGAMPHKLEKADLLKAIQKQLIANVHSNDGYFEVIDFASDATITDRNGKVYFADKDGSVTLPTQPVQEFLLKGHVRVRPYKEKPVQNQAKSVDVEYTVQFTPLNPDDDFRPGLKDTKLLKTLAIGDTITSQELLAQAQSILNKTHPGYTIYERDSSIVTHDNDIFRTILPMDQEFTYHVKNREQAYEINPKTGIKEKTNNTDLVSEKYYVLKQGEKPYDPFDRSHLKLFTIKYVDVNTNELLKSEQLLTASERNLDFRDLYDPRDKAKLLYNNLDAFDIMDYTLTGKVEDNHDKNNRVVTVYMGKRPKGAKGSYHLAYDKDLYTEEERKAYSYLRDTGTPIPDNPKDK
As to the kind of experiment: viability-normalized secreted streptokinase activity reduction – plasminogen activation absorbance, OD405, dose response (AID 1914).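 Also: secreted streptokinase activity via plasminogen activation per viability signal from cell pellet.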 The assay is classed as functional, Streptococcus pyogenes M1 GAS.

Assay [9] is described as follows: cells. The format is functional.
A short description of assay [10]: NIH3T3 cell viability loss – ATP luminescence, mouse fibroblasts, counter-screen, dose response (AID 2010).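 Also: cells exposed to compound for about 90 hours before reading.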 The assay is classed as functional, cell-based.
The subject of assay [11] is H4. The assay is described as follows: Luminescence Cell-Based Dose Response HTS to Identify Activators of 5'UTR Stem-Loop Driven Prion Protein mRNA Translation in H4 Neuroglioblastoma Cells. [Related pubchem assays: 1829 (Project Summary), 1814 (Primary HTS)]. The assay is classed as functional. To be noted: Homo sapiens.
Assay [12] can be described thus: Trypanosoma cruzi growth suppression in host cells – NIH3T3 host cells, beta-gal luminescence, confirmation (AID 2044).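 Also: intracellular parasites grown in NIH/3T3 mouse fibroblasts as host cells; luminescent beta-galactosidase reporter signal from transgenic T. cruzi replicating inside host cells; inhibitors lower the luminescence signal.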 The format is functional, cell-based.
A short description of assay [13]: Luminescence Cell-Based Dose Confirmation HTS to Identify Activators of 5'UTR Stem-Loop Driven Alpha-Synuclein mRNA Translation in H4 Neuroglioblastoma Cells. [Related pubchem assays: 1829 (Project Summary), 1814 (Primary HTS)]. The assay is classed as functional.
In assay [14] the test system is INS1. As to the kind of experiment: INS-1E survival protection against cytokine death – cell-based, luminescence, retest, dose response (AID 449756).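 Also: cell death triggered by IL-1 beta plus TNF-alpha plus IFN-gamma mixture; protective hits raise ATP signal compared with cytokine alone wells.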 To be noted: Rattus norvegicus. The assay is classed as functional.
The nature of assay [15]: Luminescence Cell-Based Dose Response HTS to Identify Activators of Luciferase Translation or Activity in H4 […] Cells. [Related pubchem assays: 1829 (Project Summary), 1814 (Primary HTS)]. The format is functional.
Assay [16] can be described thus: Luminescence Cell-Based Dose Retest to Confirm Inhibitors of Cancer Stem Cells. [Related pubchem assays (depositor defined):AID2717, AID2721]. The assay is classed as functional. Particulars: Homo sapiens.

SMILES strings stand for the structures. Active and inactive are the calls of the source. Bounds are passed on as bounds.

Usually EC50 stands for the midpoint of the concentration-response curve. In general, AC50 refers to the concentration at which the activity in the assay is half-maximal.

T1 sequence (P11940 whole entry, the tested form may be a part): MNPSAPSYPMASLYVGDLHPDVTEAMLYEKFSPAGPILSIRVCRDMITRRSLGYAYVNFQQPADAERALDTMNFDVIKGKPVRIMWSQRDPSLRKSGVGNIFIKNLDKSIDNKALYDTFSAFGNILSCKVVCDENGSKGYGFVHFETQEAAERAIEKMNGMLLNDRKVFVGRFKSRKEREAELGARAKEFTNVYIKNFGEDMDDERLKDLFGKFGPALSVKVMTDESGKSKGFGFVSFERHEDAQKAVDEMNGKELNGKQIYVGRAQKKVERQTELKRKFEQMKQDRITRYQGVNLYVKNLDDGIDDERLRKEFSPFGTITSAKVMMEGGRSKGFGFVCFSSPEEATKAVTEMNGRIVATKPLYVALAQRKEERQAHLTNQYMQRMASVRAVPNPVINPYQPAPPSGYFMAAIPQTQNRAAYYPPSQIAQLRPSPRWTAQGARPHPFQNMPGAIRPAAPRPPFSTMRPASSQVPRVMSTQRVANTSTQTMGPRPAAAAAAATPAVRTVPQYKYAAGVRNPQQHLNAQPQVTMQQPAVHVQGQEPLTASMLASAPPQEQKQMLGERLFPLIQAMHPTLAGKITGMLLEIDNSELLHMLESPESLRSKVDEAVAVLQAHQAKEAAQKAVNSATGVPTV

As for `CCOC(=O)c1c(N2C(=O)CC(Sc3ccccc3C(=O)O)C2=O)sc2c1CCCC2` (stereo not drawn), the IC50 in assay [1] and in assay [2] was > 66 µM (inactive) in each case. With `COc1nc(-c2ccccc2)cc(-c2ccc(OC)c(OC)c2)n1`, the CC50 in [3] is > 40 µM (active). For the compound `COc1ccc(-c2ccc(OC)c([C@H]3[C@@H]4C=CCC[C@@]4(C)C(=O)N3Cc3ccccc3)c2)cc1OC`, the CC50 in assay [3] is > 40 µM (active). As to `N#C/C(=C(/O)c1ccco1)c1nc2ccccc2s1`, the EC50 in [4] is > 50 µM (active). Regarding `COc1ccc(CNc2[nH]cnc3c4cc(OC)c(OC)cc4nc2-3)cc1`, in assay [3], the CC50 is > 40 µM (active). As for `O=C(CCn1c(=O)c2ccccc2n(CC(=O)NCCC2=CCCCC2)c1=O)NCc1ccco1`, the IC50 in assay [5] was > 100 µM (inactive). Still for that read-out and setting: then `CC1(C)c2ccccc2C(=O)c2ccccc21`, with 24 µM (active). For `Cc1cccc(N2CCN(C(=O)CCN3C(S)=NC(C)(C)CC3C)CC2)c1C` (stereo not drawn), the EC50 in assay [4] was > 50 µM (active). Turning to `Brc1ccc(-c2nnc(-c3ccccc3)o2)o1`, the IC50 in assay [5] was > 100 µM (inactive). Regarding `COc1ccc(S(=O)(=O)N2CN3CCN(C3)C2)cc1`, the EC50 in assay [4] is > 50 µM (active). Take `Cc1ccc(NC(S)=NCc2cccs2)cc1`: the 50% effective concentration (EC50) in assay [4] was > 50 µM (active). For the compound `Clc1c(-c2ccccc2)nnn1-c1ccccc1`, the IC50 in [5] was > 100 µM (inactive). In the case of `CC(c1ccccc1)(c1ccccc1)c1ccncc1`, the half-maximal effective concentration (EC50) in assay [4] was > 50 µM (active). As for `COc1ccccc1C1CC(c2cccc(NS(C)(=O)=O)c2)=NN1S(=O)(=O)c1ccccc1` (stereo not drawn), in [5], the IC50 is > 100 µM (inactive). For the compound `C[C@@]12C(=O)N(Cc3ccc(-c4ccccc4)cc3)CC(=O)N1[C@H](/C=C/c1ccccc1)[C@@H]1C(=O)N(c3ccccc3)C(=O)[C@@H]12`, the IC50 in assay [5] is > 100 µM (inactive). For the compound `Sc1nc2ccccc2c2nc(-c3ccccc3)nn12`, the EC50 in assay [6] was 5.84 µM (active); in [7], > 150 µM (not active); in assay [8] it was > 150 µM (not active). For the same compound, the CC50 in [3] is 35.2 µM (active). Consider `NC(=O)c1ccc[n+](CC(=O)c2cccc([N+](=O)[O-])c2)c1`, for which the EC50 in [4] is > 50 µM (active). Same read-out and setting: then `O=[N+]([O-])c1ccc(-c2cnc(NO)nc2)cc1`, with > 50 µM (active).

As for `CC1CC(C)CN(C(=O)COC(=O)c2ccc([N+](=O)[O-])o2)C1` (stereo not drawn), the IC50 in assay [9] is 14.7 µM (active). Regarding `CC(=O)NCCn1c(C)cc2ccccc21`, the IC50 in [5] is > 100 µM (inactive). For `COC(=O)C(O)(c1ccc(NC(=S)NC(=O)c2ccccc2)cc1)C(F)(F)F` (stereo not drawn), the IC50 in assay [9] is 39.6 µM (active). Regarding `O=C(Nc1ccc(Cl)cc1)NC1CCCCNC1=O` (stereo not drawn), the IC50 in assay [5] was > 100 µM (inactive). With `CC(C)Oc1ccc(C(=O)NC2=NCCS2)cc1`, the IC50 in assay [1] and in assay [2] was > 66 µM (inactive) in each case. As for `CCCN1CCc2nc(S)nc(O)c2C1`, the IC50 in assay [1] and in assay [2] was > 66 µM (inactive) in each case. With `Cc1nc(NC(=O)C23CC4CC(CC(C4)C2)C3)sc1Cc1ccc2c(c1)OCO2`, the half-maximal effective concentration (EC50) was > 60 µM (not active) in [10]; 8.65 µM (active) in [11]; 0.844 µM (active) in assay [12]; 15.8 µM (active) in [13]; 6.33 µM (active) in assay [15]. The AC50 in assay [14] is 14.1 µM (active). Take `O=C(N/N=C/c1cc(Cl)cc([N+](=O)[O-])c1O)C1CC1`: the 50% effective concentration (EC50) in [4] was > 50 µM (active). For the compound `O=C(NC(=S)Nc1ncccn1)c1ccccc1Br`, the IC50 in [1] and in assay [2] was > 66 µM (inactive) each time. As to `CN1CCN(C2=Cc3ccc(Cl)cc3Sc3ccc(F)cc32)CC1`, the half-maximal effective concentration (EC50) in [6] was 7.12 µM (active); in assay [7], 7.8 µM (active). In addition, the CC50 in assay [3] was 33.1 µM (active). Moreover, in [16], the AC50 was 6.81 µM (active).
